Experimental findings from US9073856B2, “Phenyl methanesulfonamide derivatives useful as MGAT-2 inhibitors” (Eli Lilly and Company, priority 2012, dated 2015) are described below.

Counter-ions that a name gives are not always drawn. Some results are limits rather than exact numbers.

Assay [1] deals with T1, human MGAT-2 (Homo sapiens, UniProt Q3SYC2). The assay is described as follows: MGAT-2 Cell Assay (Caco-2 cells stably transfected with human MGAT-2, HDG substrate, LC-MS). It counts as cell-based. As to conditions: HDG/DOPC. Here is the method: The inhibitory activity of compounds against human MGAT-2 in a cell environment is evaluated in this assay. Caco-2 is a human colon carcinoma cell line and is often used as a model for intestinal epithelial cells. […] A MAG analogue, 2-O-Hexadecylglycerol (HDG), is utilized to detect cellular MGAT-2 activity, because HDG is not be hydrolyzed and the resulting product is readily monitored by mass spectrometry. The substrate is delivered to cells using phospholipid vesicles.
T1 sequence (Q3SYC2 whole entry): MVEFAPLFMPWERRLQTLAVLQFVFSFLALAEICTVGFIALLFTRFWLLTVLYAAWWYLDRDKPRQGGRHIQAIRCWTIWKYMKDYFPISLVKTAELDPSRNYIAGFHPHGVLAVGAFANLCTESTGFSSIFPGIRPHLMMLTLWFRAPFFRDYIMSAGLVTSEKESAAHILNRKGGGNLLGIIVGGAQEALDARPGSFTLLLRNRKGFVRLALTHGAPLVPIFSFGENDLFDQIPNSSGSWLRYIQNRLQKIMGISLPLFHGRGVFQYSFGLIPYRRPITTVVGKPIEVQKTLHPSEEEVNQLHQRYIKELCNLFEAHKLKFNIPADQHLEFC
Seed the Caco2 cells onto 100 mm dishes to be 80% confluent after 24 hours in complete media (3/1 DMEM: F12+10% FBS+20 mM HEPES+gentamicin). Transfect the cells with hMGAT-2 plasmid (MGAT-2-pCDNA3.1-Hygro) using Lipofectamine 2000 (Invitrogen). After a 6 hour exposure to the transfection mixture, wash the cells 3× in PBS and then add media. Incubate the cells for an additional 18 hours incubation, trypsinize the cells and serially dilute them into 100 mm dishes. Added complete media+400 μg/ml hygromycin and incubate until clones appear. Isolate and transfer the clones into 24 well dishes and grow to confluency. Prepare the RNAs from these clones using a Qiagen RNAeasy kit. Perform Taqman analysis using an ABI inventoried assay (HS00228262) on a 7900 Sequence Detection System (ABI). Analyze the lysates from these clones western blot analysis using a goat polyclonal antibody (Santa Cruz, SC-32392 to confirm human MGAT-2 expression of a 38 Kdal protein corresponding to MGAT-2.
Mix 2-O-hexadecylglycerol (“HDG”, Biosynth Chemistry & Biology, # H-1806, 562.7 μl of 20 mg/ml) and DOPC (14.3 ml of 20 mg/ml) in a glass tube; dry first under N2 gas; and then under vacuum for additional 30 minutes. Add 20 ml of buffer (150 mM Tris-Cl pH 7.4, 250 mM Sucrose, 1 mM EDTA) to the dried HDG/DOPC mixture while sonicating until the solution becomes clear. Plate the Caco2 cells into a poly-D-lysine coated 96-well plate (the “Cell Plate”) at 37° C., 5% CO2 overnight. Remove the growth media and pretreat the cells with the test compound in DMEMF12 (3:1) media (GIBCO 93-0152DK) containing 2% BSA (Sigma) for 30 minutes. Treat the cells with one test compound in 2% BSA DMEMF12 (3:1) media containing 40 μM of oleic acid and 800 μM of 8.9% HDG/DOPC for 4 hours. Trypsinize the cells with 50 μl of trypsin and add 50 μl of PBS. Immediately freeze the cells on dry ice and store at −20° C. for LC-MS analysis. Extract the cells with chloroform/methanol as follows transfer the cells to a 2 ml Plate; wash the Cell Plate with 200 μL methanol and then transfer the methanol wash to the 2 ml Plate; wash the Cell Plate again with 200 μL PBS and transfer the PBS wash to the 2 ml Plate. Add chloroform (400 μL) with internal standard (19.52 ng/mL) DAG (15:0,15:0 (Sigma)), D5-TAG (39.03 ng/mL) CDN (16,16,16) to the 2 mL Plate. […]

The next assay relates to TAG absorption. The assay is described as follows: Dog Oil Bolus Model (plasma TAG after olive oil bolus). It is filed as in vivo. As to conditions: male beagles, olive oil 5 ml/kg. Here is the method:
Inhibiting MGAT-2 found in the small intestine may be useful for treating hypertriglyceridemia caused by excessive fat intake. To assess the ability of the exemplified compounds to inhibit TAG absorption, twenty one male beagles (n=7 per treatment group) are enrolled for each study each dog selected to have a body weight between 9-13 kg. House the dogs in cages with a standard light cycle (12 hours light and 12 hours dark); at room temperature: 72±8° F.; and at 30%-70% relative humidity. Fast the dogs for 16 hours prior to the start of the study, then dose the fasted dogs with vehicle (1% HEC, 0.25%, Tween 80, Antifoam) or one of the test compounds. Bleed the dogs one hour after dosing, (0.5 ml from the jugular vein) for a time 0 sample. Dose the dogs with olive oil (Sigma Catalog#: O-1514, 5 ml/kg) immediately after collection of the time 0 sample. Collect samples into an EDTA tube on ice at 1.5, 2, 3, 5, 7, and 9 hrs post compound/vehicle dosing. […]
The analyte is the [M+NH4]+ ion of TAG 18:1 18:1 18:1, which has a mass of 902.8 m/z; the internal standard is D5 TAG 16:0 16:0 16:0, which has a mass of 829.8 m/z. […] The percent inhibition of plasma triglyceride is calculated as follows: the (oil bolus group mean of net TAG AUC−oil bolus group mean of net TAG AUC with compound treatment/oil bolus group mean of net TAG AUC)*100. […]

The target in assay [2] is T1, human MGAT-2. The assay is described as follows: MGAT-2 Inhibitory Assay (14C-oleoyl-CoA, Microscint E extraction, SF9 cell lysate). It counts as biochemical. Further details: made in house; host or cells: Insect SF9 cells (supernatant of homogenate, unpurified). As to conditions: human MGAT-2 expressed in SF9 cells, 90 minutes, room temperature; read-out: IC50 in MGAT-2 in vitro assay. The procedure: The in vitro inhibitory activity of compounds against human MGAT-2 is evaluated in this assay. MGAT-2 transfers an oleoyl group to monooleoyl-glycerol (“MAG”) from oleoyl-CoA to form dioleoyl-glycerol (“DAG”) in the intestinal triglyceride resynthesis pathway. The assay takes advantage of Microscint E extraction, which extracts hydrophobic molecules selectively over hydrophilic ones to separate the ^14C-oleoyl-CoA from ^14C-DAG.
Insect SF9 cells express human MGAT-2. Prepare the cell lysate in 20 mM of NaCl with protease inhibitor (Roche Cat#11873580001). Homogenize the SF9 cells expressing human MGAT-2 at 15,000 rpm for 20×2 seconds (PT-3100 Polytrone). Centrifuge the homogenate at 1000 g for 10 minutes at 4° C. Collect the supernatant into a separate tube for protein quantification and activity testing. Purify the glycerol monooleate substrate (Spectrum Chemical, CAS#25496-72-4) chromatographically. Prepare the monoacylglyerol (MAG) substrate in phospholipid vescicles (dioleoyl phosphatidylcholine “DOPC”). Prepare the MAG/DOPC vesicles at 20 mM concentration of total lipids (MAG and DOPC). Prepare different molar ratios of MAG to total lipids for either compound screening (8.9%) or compound kinetic studies (2.6-40%). Mix the appropriate amount of purified MAG and DOPC (Avanti Polar Lipids #850375C) in a glass tube under N2 gas and then dry under vacuum for 30 minutes. […]

[3] abbreviates: Caco-2 cells expressing human MGAT-2, 4 hours, read-out: Basal Triglyceride Caco 2 Relative IC50.

One may read the IC50 as the point on the concentration scale where inhibition reaches its midpoint. For `CC(C)(C)C1CCN(Cc2ccc([C@H](NS(C)(=O)=O)C(F)(F)F)cc2)CC1` [Example 2, N-[(1S)-1-{4-[(4-tert-butylpiperidin-1-yl)methyl]phenyl}-2,2,2-trifluoroethyl]methanesulfonamide phosphoric acid], the IC50 at human MGAT-2 [1] (setting [3]) is 102 nM.

For `CS(=O)(=O)N[C@@H](c1ccc(CN2CCC(c3ccc(F)cc3)CC2)cc1)C(F)(F)F` [Example 4, N-[(1S)-2,2,2-trifluoro-1-(4-{[4-(4-fluorophenyl)piperidin-1-yl]methyl}phenyl)ethyl]methanesulfonamide hydrochloride], the IC50 on human MGAT-2 [1] (setting [3]) was determined as 17.7 nM.

As to `C[C@@H](NS(C)(=O)=O)c1ccc(CN2CCC(c3ccc(F)cc3)CC2)cc1` [Example 5, N-[(1R)-1-(4-{[4-(4-fluorophenyl)piperidin-1-yl]methyl}phenyl)ethyl]methanesulfonamide hydrochloride], the 50% inhibitory concentration (IC50) at human MGAT-2 [1] (setting [3]) was found to be 64.2 nM.

`CC(C)(C)C1CCN(Cc2ccc([C@H](NS(C)(=O)=O)C(F)(F)F)cc2)CC1.Cl` [Example 1, N-[(1S)-1-[4-[(4-tert-Butylpiperidin-1-yl)methyl]phenyl]-2,2,2-trifluoro-ethyl]methanesulfonamide hydrochloride]: the half-inhibitory concentration (IC50) against human MGAT-2 [1] (Basal Triglyceride Caco 2 Relative IC50, Caco-2 cells expressing human MGAT-2, 4 hours) is 58.2 nM; on human MGAT-2 [2], less than 12 nM. The “inhibition of TAG absorption (percent inhibition of net plasma TAG AUC)” value in the assay with TAG absorption (dosed at 10 mg/kg) is 69%. In the assay on TAG absorption (dosed at 30 mg/kg), the “inhibition of TAG absorption” value was “completely inhibited”.
